Laboratory results from ChEMBL document CHEMBL3045214, “Pest-managing efficacy of trans-asarone isolated from Daucus carota L. seeds” (2002).
Calls of active or inactive are those of the source. The calls are words filed in the database; no cut-off is given here.

Assays:
[1] = test system: Candida parapsilosis; test: Antimicrobial activity against Candida parapsilosis at 100 ug/ml after 72 hr; assay type: functional
[2] = test system: Pichia kudriavzevii; test: Antimicrobial activity against Pichia kudriavzevii at 100 ug/ml after 72 hr; assay type: functional
[3] = test system: Caenorhabditis elegans; test: Nematicidal activity against Caenorhabditis elegans assessed as mortality at 100 ug/ml after 24 hr by microscopic analysis; assay type: functional
[4] = test system: Staphylococcus aureus; test: Antimicrobial activity against Staphylococcus aureus at 100 ug/ml after 72 hr; assay type: functional, organism-based
[5] = test system: Aspergillus parasiticus; test: Antimicrobial activity against Aspergillus parasiticus at 100 ug/ml after 72 hr; assay type: functional, organism-based
[6] = test system: Aedes aegypti; test: Mosquitocidal activity against fourth-instar larvae of Aedes aegypti assessed as mortality after 24 hr; assay type: functional, organism-based
[7] = test system: Fusarium oxysporum; test: Antimicrobial activity against Fusarium oxysporum at 100 ug/ml after 72 hr; assay type: functional, organism-based
[8] = test system: Candida albicans; test: Antimicrobial activity against Candida albicans at 100 ug/ml after 72 hr; assay type: functional
[9] = test system: Staphylococcus epidermidis; test: Antimicrobial activity against Staphylococcus epidermidis at 100 ug/ml after 72 hr; assay type: functional, organism-based
[10] = test system: Panagrellus redivivus; test: Nematicidal activity against Panagrellus redivivus assessed as mortality at 100 ug/ml after 24 hr by microscopic analysis; assay type: functional
[11] = test system: Aspergillus flavus; test: Antimicrobial activity against Aspergillus flavus at 100 ug/ml after 72 hr; assay type: functional, organism-based
[12] = test system: Escherichia coli; test: Antimicrobial activity against Escherichia coli at 100 ug/ml after 72 hr; assay type: functional, organism-based
[13] = test system: Aedes aegypti; test: Mosquitocidal activity against fourth-instar larvae of Aedes aegypti assessed as mortality at 100 ug/ml after 24 hr; assay type: functional
[14] = test system: Helicoverpa zea; test: Antifeedant activity against Helicoverpa zea (corn earworm) at 100 ug/ml after 6 days; assay type: functional
[15] = test system: Heliothis virescens; test: Antifeedant activity against Heliothis virescens (tobacco budworm) at 100 ug/ml after 6 days; assay type: functional
[16] = test system: Manduca sexta; test: Antifeedant activity against Manduca sexta at 100 ug/ml after 6 days; assay type: functional
[17] = test system: Aedes aegypti; test: Mosquitocidal activity against fourth-instar larvae of Aedes aegypti assessed as mortality at 200 ug/ml after 24 hr; assay type: functional

For CCCCCCCC/C=C\CCCCCCCC(=O)O, the “inhibition zone (IZ)” value [1] was “inactive”, the “inhibition zone (IZ)” value [2] was “inactive” and the mortality [3] was “inactive”. For the same compound, the Activity [4] was “inactive”, the Activity [5] was “inactive” and the mortality [6] was “inactive”. The Activity [7] was “inactive”, the “inhibition zone (IZ)” value [8] was “inactive” and the Activity [9] was “inactive”. For the same compound, the mortality [10] was “inactive”, the Activity [11] was “inactive” and the Activity [12] was “inactive”.
With C/C=C/c1cc(OC)c(OC)cc1OC [TRANS-ASARONE] the mortality at 100 µg/mL [13] was 43%, the zone of inhibition at 100 µg/mL ([1]; Lodderomyces parapsilosis, read-out: IZ) was 6 mm and the Activity [14] was 97%. The Activity [15] was 96%, the Activity [16] was 79% and the zone of inhibition at 100 µg/mL ([2]; read-out: IZ) was 7 mm. The mortality at 100 µg/mL [3] was 100%, the Activity [4] was “inactive” and the Activity [5] was “inactive”. The mortality [6] was “Active”, the Activity [7] was “inactive” and the mortality at 200 µg/mL [17] was 100%. For the same compound, the zone of inhibition at 100 µg/mL ([8]; read-out: IZ) was 6 mm, the Activity [9] was “inactive” and the mortality at 100 µg/mL [10] was 100%. For the same compound, the Activity [11] was “inactive” and the Activity [12] was “inactive”.
In the case of CC(C)=CCC/C(C)=C/CO, the “inhibition zone (IZ)” value [1] was “inactive”, the Activity [14] was “inactive” and the Activity [15] was “inactive”. For the same compound, the Activity [16] was “inactive”, the “inhibition zone (IZ)” value [2] was “inactive” and the mortality [3] was “inactive”. For the same compound, the Activity [4] was “inactive”, the Activity [5] was “inactive” and the mortality [6] was “inactive”. The Activity [7] was “inactive”, the “inhibition zone (IZ)” value [8] was “inactive” and the Activity [9] was “inactive”. For the same compound, the mortality [10] was “inactive”, the Activity [11] was “inactive” and the Activity [12] was “inactive”.
COc1cc(OC)c(OC)cc1C=O was tested, and the “inhibition zone (IZ)” value [1] was “inactive”, the Activity [14] was “inactive” and the Activity [15] was “inactive”. For the same compound, the Activity [16] was “inactive”, the “inhibition zone (IZ)” value [2] was “inactive” and the mortality [3] was “inactive”. For the same compound, the Activity [4] was “inactive”, the Activity [5] was “inactive” and the mortality [6] was “inactive”. The Activity [7] was “inactive”, the “inhibition zone (IZ)” value [8] was “inactive” and the Activity [9] was “inactive”. The mortality [10] was “inactive”, the Activity [11] was “inactive” and the Activity [12] was “inactive”.
